# Experimental data reported in ChEMBL document CHEMBL5357031, “Design and Synthesis of Cytotoxic Water-Soluble Rocaglaol Derivatives against HEL Cells by Inhibiting Fli-1” (J Nat Prod, 2024).
# Assays:
# HEL [1] = test: Induction of cell cycle arrest in HEL cells assessed as cell accumulation at G2/M phase at 0.4 uM incubated for 48 hrs by […] (reference value: 20.36 %); format: functional, Homo sapiens
# HEL [2] = test: Induction of apoptosis in HEL cells assessed as necrotic cells at 0.1 uM incubated for 24 hrs by Annexin V/PI staining based flow cytometry (reference value: 1.61 %); format: functional, Homo sapiens
# HEL [3] = test: Induction of apoptosis in HEL cells assessed as late apoptotic cells at 0.1 uM incubated for 48 hrs by Annexin V/PI staining based flow cytometry (reference value: 1.83 %); format: functional, Homo sapiens
# HEL [4] = test: Induction of apoptosis in HEL cells assessed as late apoptotic cells at 0.4 uM incubated for 24 hrs by Annexin V/PI staining based flow cytometry (reference value: 1.98 %); format: functional, Homo sapiens
# HEL [5] = test: Induction of apoptosis in HEL cells assessed as viable cells at 0.4 uM incubated for 48 hrs by Annexin V/PI staining based flow cytometry (reference value: 95.63 %); format: functional; details: Homo sapiens, read-out: Activity
# HEL [6] = test: Induction of cell cycle arrest in HEL cells assessed as cell accumulation at S phase at 0.4 uM incubated for 48 hrs by […] (reference value: 33.66 %); format: functional, Homo sapiens
# HEL [7] = test: Induction of apoptosis in HEL cells assessed as viable cells at 0.4 uM incubated for 24 hrs by Annexin V/PI staining based flow cytometry (reference value: 94.94 %); format: functional; details: Homo sapiens, read-out: Activity
# HEL [8] = test: Induction of cell cycle arrest in HEL cells assessed as cell accumulation at G1 phase at 0.4 uM incubated for 48 hrs by […] (reference value: 54.17 %); format: functional, Homo sapiens
# HEL [9] = test: Induction of cell cycle arrest in HEL cells assessed as cell accumulation at S phase at 0.2 uM incubated for 24 hrs by […] (reference value: 16.18 %); format: functional, Homo sapiens
# HEL [10] = test: Induction of apoptosis in HEL cells assessed as viable cells at 0.2 uM incubated for 24 hrs by Annexin V/PI staining based flow cytometry (reference value: 94.94 %); format: functional; details: Homo sapiens, read-out: Activity
# HEL [11] = test: Induction of cell cycle arrest in HEL cells assessed as cell accumulation at G2/M phase at 0.4 uM incubated for 24 hrs by […] (reference value: 16.18 %); format: functional, Homo sapiens
# HEL [12] = test: Induction of cell cycle arrest in HEL cells assessed as cell accumulation at G2/M phase at 0.1 uM incubated for 24 hrs by […] (reference value: 16.18 %); format: functional, Homo sapiens
# HEL [13] = test: Induction of cell cycle arrest in HEL cells assessed as cell accumulation at G1 phase at 0.2 uM incubated for 24 hrs by Western blot analysis (reference value: 39.11 %); format: functional, Homo sapiens
# HEL [14] = test: Induction of apoptosis in HEL cells assessed as necrotic cells at 0.4 uM incubated for 24 hrs by Annexin V/PI staining based flow cytometry (reference value: 1.61 %); format: functional, Homo sapiens
# HEL [15] = test: Induction of cell cycle arrest in HEL cells assessed as cell accumulation at G1 phase at 0.1 uM incubated for 24 hrs by […] (reference value: 39.11 %); format: functional, Homo sapiens
# HEL [16] = test: Induction of apoptosis in HEL cells assessed as early apoptotic cells at 0.2 uM incubated for 24 hrs by Annexin V/PI staining based flow cytometry (reference value: 1.47 %); format: functional, Homo sapiens
# HEL [17] = test: Induction of apoptosis in HEL cells assessed as early apoptotic cells at 0.4 uM incubated for 48 hrs by Annexin V/PI staining based flow cytometry (reference value: 1.62 %); format: functional, Homo sapiens
# HEL [18] = test: Induction of cell cycle arrest in HEL cells assessed as cell accumulation at G2/M phase at 0.1 uM incubated for 48 hrs by […] (reference value: 20.36 %); format: functional, Homo sapiens
# HEL [19] = test: Induction of apoptosis in HEL cells assessed as viable cells at 0.1 uM incubated for 24 hrs by Annexin V/PI staining based flow cytometry (reference value: 94.94 %); format: functional; details: Homo sapiens, read-out: Activity
# HEL [20] = test: Induction of apoptosis in HEL cells assessed as early apoptotic cells at 0.1 uM incubated for 48 hrs by Annexin V/PI staining based flow cytometry (reference value: 1.62 %); format: functional, Homo sapiens
# HEL [21] = test: Induction of apoptosis in HEL cells assessed as necrotic cells at 0.4 uM incubated for 48 hrs by Annexin V/PI staining based flow cytometry (reference value: 0.92 %); format: functional, Homo sapiens
# HEL [22] = test: Induction of cell cycle arrest in HEL cells assessed as cell accumulation at G1 phase at 0.2 uM incubated for 48 hrs by […] (reference value: 54.17 %); format: functional, Homo sapiens
# HEL [23] = test: Induction of apoptosis in HEL cells assessed as early apoptotic cells at 0.4 uM incubated for 24 hrs by Annexin V/PI staining based flow cytometry (reference value: 1.47 %); format: functional, Homo sapiens
# HEL [24] = test: Induction of apoptosis in HEL cells assessed as late apoptotic cells at 0.1 uM incubated for 24 hrs by Annexin V/PI staining based flow cytometry (reference value: 1.98 %); format: functional, Homo sapiens
# HEL [25] = test: Induction of cell cycle arrest in HEL cells assessed as cell accumulation at S phase at 0.1 uM incubated for 24 hrs by […] (reference value: 16.18 %); format: functional, Homo sapiens
# HEL [26] = test: Induction of cell cycle arrest in HEL cells assessed as cell accumulation at S phase at 0.2 uM incubated for 48 hrs by […] (reference value: 33.66 %); format: functional, Homo sapiens
# HEL [27] = test: Induction of apoptosis in HEL cells assessed as early apoptotic cells at 0.2 uM incubated for 48 hrs by Annexin V/PI staining based flow cytometry (reference value: 1.62 %); format: functional, Homo sapiens
# [28] = Solubility of compound in PBS at pH 7.4 at 1.7 mg measured for 24 hrs by HPLC-UV analysis; format: physicochemical
# HEL [29] = test: Induction of apoptosis in HEL cells assessed as necrotic cells at 0.2 uM incubated for 24 hrs by Annexin V/PI staining based flow cytometry (reference value: 1.61 %); format: functional, Homo sapiens
# SW480 = test: Cytotoxicity against human SW480 cells assessed as cell growth inhibition incubated for 72 hrs by MTT assay; format: functional, cell-based; details: sw480
# HEL [30] = test: Induction of cell cycle arrest in HEL cells assessed as cell accumulation at S phase at 0.1 uM incubated for 48 hrs by […] (reference value: 33.66 %); format: functional, Homo sapiens
# HEL [31] = test: Induction of cell cycle arrest in HEL cells assessed as cell accumulation at G1 phase at 0.1 uM incubated for 48 hrs by […] (reference value: 54.17 %); format: functional, Homo sapiens
# HEL [32] = test: Induction of cell cycle arrest in HEL cells assessed as cell accumulation at G2/M phase at 0.2 uM incubated for 48 hrs by […] (reference value: 20.36 %); format: functional, Homo sapiens
# HEL [33] = test: Induction of apoptosis in HEL cells assessed as necrotic cells at 0.2 uM incubated for 48 hrs by Annexin V/PI staining based flow cytometry (reference value: 0.92 %); format: functional, Homo sapiens
# HEL [34] = test: Induction of apoptosis in HEL cells assessed as late apoptotic cells at 0.2 uM incubated for 48 hrs by Annexin V/PI staining based flow cytometry (reference value: 1.83 %); format: functional, Homo sapiens
# HEL [35] = test: Induction of cell cycle arrest in HEL cells assessed as cell accumulation at G1 phase at 0.4 uM incubated for 24 hrs by […] (reference value: 39.11 %); format: functional, Homo sapiens
# HEL [36] = test: Induction of cell cycle arrest in HEL cells assessed as cell accumulation at S phase at 0.4 uM incubated for 24 hrs by […] (reference value: 16.18 %); format: functional, Homo sapiens
# HEL [37] = test: Induction of apoptosis in HEL cells assessed as necrotic cells at 0.1 uM incubated for 48 hrs by Annexin V/PI staining based flow cytometry (reference value: 0.92 %); format: functional, Homo sapiens
# HEL [38] = test: Induction of apoptosis in HEL cells assessed as viable cells at 0.1 uM incubated for 48 hrs by Annexin V/PI staining based flow cytometry (reference value: 95.63 %); format: functional; details: Homo sapiens, read-out: Activity
# HEL [39] = test: Induction of cell cycle arrest in HEL cells assessed as cell accumulation at G2/M phase at 0.2 uM incubated for 24 hrs by […] (reference value: 16.18 %); format: functional, Homo sapiens
# HEL [40] = test: Induction of apoptosis in HEL cells assessed as viable cells at 0.2 uM incubated for 48 hrs by Annexin V/PI staining based flow cytometry (reference value: 95.63 %); format: functional; details: Homo sapiens, read-out: Activity
# HEL [41] = test: Cytotoxicity against HEL cells assessed as cell growth inhibition incubated for 72 hrs by MTT assay; format: functional, cell-based, Homo sapiens; details: hel
# HEL [42] = test: Induction of apoptosis in HEL cells assessed as late apoptotic cells at 0.2 uM incubated for 24 hrs by Annexin V/PI staining based flow cytometry (reference value: 1.98 %); format: functional, Homo sapiens
# HEL [43] = test: Induction of apoptosis in HEL cells assessed as early apoptotic cells at 0.1 uM incubated for 24 hrs by Annexin V/PI staining based flow cytometry (reference value: 1.47 %); format: functional, Homo sapiens
# HEL [44] = test: Induction of apoptosis in HEL cells assessed as late apoptotic cells at 0.4 uM incubated for 48 hrs by Annexin V/PI staining based flow cytometry (reference value: 1.83 %); format: functional, Homo sapiens
# Description for MDA-MB-231: Cytotoxicity against human MDA-MB-231 cells assessed as cell growth inhibition incubated for 72 hrs by MTT assay
structure (smiles),measurement,setting,value
COc1cc(OC)c2c(c1)O[C@@]1(c3ccc(OCCCCCN4CCN(C)CC4)cc3)[C@H](c3ccccc3)C[C@@H](O)[C@@]21O.O=C(O)/C=C/C(=O)O (racemic; form 2),Activity,HEL [1],8.35%
same,Activity,HEL [2],1.96%
same,Activity,HEL [3],3.54%
same,Activity,HEL [4],2.1%
same,viability at 0.4 µM,HEL [5],68.9%
same,Activity,HEL [6],19.87%
same,IC50,MDA-MB-231,> 1 µM
same,viability at 0.4 µM,HEL [7],94.6%
same,Activity,HEL [8],66.15%
same,Activity,HEL [9],27.85%
same,viability at 0.2 µM,HEL [10],95.2%
same,Activity,HEL [11],18.31%
same,Activity,HEL [12],21.09%
same,Activity,HEL [13],50.73%
same,Activity,HEL [14],1.12%
same,Activity,HEL [15],39.54%
same,Activity,HEL [16],1.5%
same,Activity,HEL [17],18.85%
same,Activity,HEL [18],25.52%
same,viability at 0.1 µM,HEL [19],94.7%
same,Activity,HEL [20],3.45%
same,Activity,HEL [21],2.21%
same,Activity,HEL [22],62.59%
same,Activity,HEL [23],2.17%
same,Activity,HEL [24],2.02%
same,Activity,HEL [25],39.19%
same,Activity,HEL [26],19.87%
same,Activity,HEL [27],6.37%
same,solubility at 24 h,[28],12.5 mg/mL
same,Activity,HEL [29],1.68%
same,IC50,SW480,> 1 µM
same,Activity,HEL [30],30.25%
same,Activity,HEL [31],43.16%
same,Activity,HEL [32],15.61%
same,Activity,HEL [33],3.11%
same,Activity,HEL [34],7.65%
same,Activity,HEL [35],54.17%
same,Activity,HEL [36],27.85%
same,Activity,HEL [37],1.02%
same,viability at 0.1 µM,HEL [38],92%
same,Activity,HEL [39],20.55%
same,viability at 0.2 µM,HEL [40],82.9%
same,IC50,HEL [41],0.19 µM
same,Activity,HEL [42],1.66%
same,Activity,HEL [43],1.34%
same,Activity,HEL [44],10.08%
